Measurements taken from ChEMBL document CHEMBL1123599, “Diketopiperazines as a new class of platelet-activating factor inhibitors” (J Med Chem, 1987).

Organism: Oryctolagus cuniculus
Assay: Inhibition of rabbit platelet aggregation induced by PAF (Platelet activating factor)
Type: functional

Row | Compound | IC50 [µM]
1 | CSC[C@H]1NC(=O)[C@@H](Cc2cn(C)c3ccccc23)NC1=O | 7.9
2 | CSCC[C@H]1NC(=O)[C@@H]([C@@H](C)c2cccc3ccccc23)NC1=O | 1.9
3 | CSCC[C@H]1NC(=O)[C@@H]([C@@H](C)c2cn(C)c3ccccc23)NC1=O | 3.6
4 | CSC[C@@H]1NC(=O)[C@@H](Cc2cn(C)c3ccccc23)NC1=O | 36
5 | CSCC[C@H]1NC(=O)[C@@H]([C@H](C)c2cccc3ccccc23)NC1=O | 0.18
6 | CSCC[C@H]1NC(=O)[C@@H]([C@H](C)c2cn(C)c3ccccc23)NC1=O | 0.7
7 | CSC[C@@H]1N=C(C2=C(O)C=CC2)[C@H]([C@@H](C)[C@@H]2C(=O)N(C)c3ccccc32)NC1=O | 0.37
8 | COc1cc([C@H]2CC[C@H](c3cc(OC)c(OC)c(OC)c3)O2)cc(OC)c1OC | 0.32
9 | CSC[C@H]1NC(=O)[C@H](Cc2cn(C)c3ccccc23)NC1=O | 140
10 | CSC[C@@H]1NC(=O)[C@H](Cc2cn(C)c3ccccc23)NC1=O | 250
11 | CSCCC1NC(=O)C(Cc2cn(C)c3ccccc23)NC1=O (stereo unspecified) | 2.3
